We go through six compounds from patent US8937096B2, “Use of benzo-fused heterocyle sulfamide derivatives for the treatment of mania and bipolar disorder” (priority 2005, dated 2015).

The structures appear in SMILES notation.

The subject of series [1] is hippocampal kindled seizures. Nature of the series: Rat Hippocampal Kindling Test (Interruption of Kindled State). Particulars: reference drugs; suppression at doses associated with toxicity. Format: in vivo. How it is done:
In the present rapid hippocampal kindling model adult male Sprague-Dawley rats (300-400 g) were surgically implanted with bipolar electrodes placed in the hippocampus. […] One week later, the rats received 2-3 supra-threshold stimulations delivered every 30 min before treatment with test compound, to ensure stability of the behavioral seizure stage and after-discharge duration. Fifteen minutes after the last stimulation, a single dose of vehicle or test compound was administered i.p. (intraperitoneally). After 15 min, each rat was then stimulated every 30 min for 3 to 4 h. After each stimulation, individual seizure scores and after-discharge durations were recorded. The group mean±SEM were calculated for each parameter. Eight rats per dose and a minimum of four doses were used to establish an ED50 value. Efficacy was measured as the ability of a compound to modify the seizure score (severity of spread) and after-discharge duration (ADD; excitability) of the generalized seizures.
Thus, according to the theories presented in current literature (Ghaemi, S. N., Boiman, E. E., and Goodwin, F. K., Soc. of Bio. Psychiatry, (1999), vol. 45, pp 137-144; Stoll, A. L., and Severus, W. E., Harvard Rev. Psychiatry, July/August (1996), Vol. 4, No. 2, pp 77-89) a decrease in seizure score and/or ADD may also be predictive of the ability of a test compound to treat the cycling associated with bipolar disorder.

The nature of series [2]: Median toxic dose (TD50) / toxic doses of Compound #8 and reference drugs. The following applies: rat, in vivo.
Series [3] relates to Wistar rats. Nature of the series: Chronic Mild Stress Model (Chronic). Format: in vivo, rat. The following applies: stressed animals; i.p. once daily. From the text:
In the chronic mild stress (CMS) model rats subjected to a variety of mild stressors for a prolonged period of time show, among other behavioral, biochemical and physiological impairments, a substantial decrease in their responsiveness to rewarding stimuli. This deficit is usually monitored by a decrease in the consumption of the 1% sucrose solution, but can also be seen in other tests, such as place preference conditioning or intracranial self-stimulation. Since the subsensitivity to reward appears to reflect anhedonia (inability to experience pleasure), which is a core symptom of major depressive disorders, the CMS procedure may serve as a suitable research tool in studies into the mechanisms of antidepressant action.
Male Wistar rats were brought into the laboratory two months before the start of the experiment. Except as described below, the animals were singly housed with food and water freely available, and were maintained on a 12-h light/dark and in a constant temperature (22±2° C.) and humidity (50±5%) conditions.
The animals were first trained to consume a 1% sucrose solution; training consisted of eight 1 h baseline tests in which sucrose was presented, in the home cage, following 14 h food and water deprivation; the sucrose intake was measured by weighing pre-weighed bottles containing the sucrose solution, at the end of the test. Subsequently, sucrose consumption was monitored, under similar conditions, at weekly intervals throughout the whole experiment.
On the basis of their sucrose intakes in the final baseline test, the animals were divided into two matched groups. One group of animals was subjected to the chronic mild stress procedure for a period of 7 consecutive weeks. […]
All results obtained in this study were analyzed by multiple analyses of variance with three between-subjects factors (stress/control, drug treatments and successive sucrose tests). […]

Series [4] relates to stressed and non-stressed animals. Nature of the series: Resident/Intruder Assay (Chronic Social Stress Assay). The series is classed as in vivo. More on the design: Locomotor Mean ± SD / Rearing Mean ± SD / Sniffing Down Mean ± SD / Sniffing Up Mean ± SD: unit not given here. The following applies: 10 mg/kg p.o. From the text:
The behavioral resident/intruder assay is used to screen compounds for anti-depressant-like activity.

Series [5] relates to hippocampal kindled seizures. Particulars: rat, in vivo; cited from earlier work.
The test system of series [6] is amygdala kindled seizures. Particulars: i.p.; cited from earlier work.

On to `O=C1NC(=O)C(c2ccccc2)(c2ccccc2)N1` [Phenytoin], for which the “seizure activity in the hippocampal kindling model” value (“seizure activity” for short) in series [1] is “significantly suppressed seizure activity”.

For the compound `CCCC(CCC)C(=O)O` [Valproic acid, reference compound], the “seizure activity” value in series [1] is “significantly suppressed seizure activity”. Besides, the toxic doses in series [2] was over 300 mg/kg.

In the case of `NC(=O)N1c2ccccc2C=Cc2ccccc21` [Carbamazepine], in series [1], the “seizure activity” value is reported as “significantly suppressed seizure activity”.

`NS(=O)(=O)NCC1CCc2ccccc2O1` (centres unmarked): the melting point lay within 100 to 101 °C.

Consider `CN(C)CCCN1c2ccccc2CCc2ccccc21` [Imipramine, imipramine, reference compound], for which the “treatment time after which increases in sucrose intake in stressed animals reached statistical significance vs Week 0” value in series [3] is “four weeks”. In series [4] (non-stressed), the “Forced Swim Test: Immobility during 5 min: Week 5 Mean ± SD” value is on record as 125.3 ± 50.1, the “Sucrose Intake Mean ± SD Week 3” value is on record as 87.9 ± 2.7, the “Sucrose Intake Mean ± SD Week 4” value was found to be 89.7 ± 5.3 and the “Sucrose Intake Mean ± SD Week 5” value was found to be 91.0 ± 3.7. In series [4] (non-stressed, week 1), the “Locomotor Mean ± SD” value is reported as 8162.8 ± 929.9, the “Rearing Mean ± SD” value amounted to 51.5 ± 12.6 and the “Sniffing Down Mean ± SD” value is listed as 25.8 ± 4.9. Also, in series [4] (non-stressed, week 5), the “Rearing Mean ± SD” value was 42.1 ± 2.9, the “Sniffing Down Mean ± SD” value stood at 26.4 ± 5.2 and the “Sniffing Up Mean ± SD” value is reported as 37.5 ± 2.1. Also, in series [4] (stressed), the “Forced Swim Test: Immobility during 5 min: Week 5 Mean ± SD” value is on record as 157.5 ± 71.6, the “Sucrose Intake Mean ± SD Week 3” value is 70.5 ± 19.5, the “Sucrose Intake Mean ± SD Week 4” value was determined as 78.3 ± 15.1 and the “Sucrose Intake Mean ± SD Week 5” value worked out at 73.6 ± 19.4. Moreover, in series [4] (stressed, week 1), the “Locomotor Mean ± SD” value is 6037.8 ± 1382.8, the “Rearing Mean ± SD” value is reported as 30 ± 9.5, the “Sniffing Down Mean ± SD” value came to 14.4 ± 4.4 and the “Sniffing Up Mean ± SD” value was 27.5 ± 7.9. In series [4] (stressed, week 5), the “Locomotor Mean ± SD” value is 5642.8 ± 998.6, the “Rearing Mean ± SD” value stood at 27.8 ± 7.4, the “Sniffing Down Mean ± SD” value is 17.3 ± 3.4 and the “Sniffing Up Mean ± SD” value amounted to 24.3 ± 5.1.

With `Nc1nnc(-c2cccc(Cl)c2Cl)c(N)n1` [lamotrigine], in series [5], the “protection against hippocampal kindled seizures” value is reported as “unable to protect”. In addition, in series [6], the “ADD reduced by” value is recorded as 62%, the “ED50 (amygdala kindled seizures)” value is recorded as 25 mg/kg and the “amygdala kindled seizure score” value is about 2.
